What was measured:
[1] = biological target: AaPK1 (Aedes aegypti pyruvate kinase 1) (Aedes aegypti, UniProt Q16F38); experiment: LDH-coupled NADH oxidation at […] nm, PEP varied; assay type: biochemical; details: 1 mM effector, 2 mM ADP, 20 mM MgCl2, 50 mM KCl, pH 7.5, 25 °C
[2] = biological target: Aedes aegypti pyruvate kinase 1 (Aedes aegypti); experiment: crystal structure

Row | Molecule | LDH-coupled NADH oxidation at 340 nm, PEP varied ([1]; allosteric activator) | also measured
1 | O=P(O)(O)OCC1(O)O[C@H](CO)[C@@H](O)[C@@H]1O (stereo partly shown) [F1P, fructose-1-phosphate] | our results indicate that F1P is an allosteric activator | 
2 | Aedes aegypti pyruvate kinase 1 (enzyme) |  | stoichiometry N [2]: 4
3 | NC(=O)CC[C@H](N)C(=O)O [glutamine] | AaPK1 is regulated by alanine, glutamine, proline, and serine in a classic allosteric fashion | 
4 | O=C(CO)[C@H](O)[C@H](O)COP(=O)(O)O [R5P, ribulose-5-phosphate] |  | LDH-coupled NADH oxidation at 340 nm, PEP varied ([1]; allosteric inhibitor): while R5P is an allosteric inhibitor of AaPK1
5 | C[C@H](N)C(=O)O [alanine] | AaPK1 is regulated by alanine, glutamine, proline, and serine in a classic allosteric fashion | 
6 | O=C(O)[C@@H]1CCCN1 [proline] | AaPK1 is regulated by alanine, glutamine, proline, and serine in a classic allosteric fashion | 
7 | N[C@@H](CO)C(=O)O [serine] | AaPK1 is regulated by alanine, glutamine, proline, and serine in a classic allosteric fashion | 
